Laboratory results taken from patent US20070135514A1, “Methods for the identification of agents for the treatment of seizures, neurological diseases, endocrinopathies and hormonal diseases” (priority 2002, published 2007).
Like-named read-outs stand apart in the source and are kept apart here.

Assays:
[1] = molecular target: T1, levetiracetam binding site (LBS) (Rattus norvegicus, UniProt Q02563); conditions: cited from earlier work
T1 construct: host or cells: crude rat brain membranes (Noyer et al. 1995; Gillard et al. 2003)
T1 sequence (Q02563 whole entry): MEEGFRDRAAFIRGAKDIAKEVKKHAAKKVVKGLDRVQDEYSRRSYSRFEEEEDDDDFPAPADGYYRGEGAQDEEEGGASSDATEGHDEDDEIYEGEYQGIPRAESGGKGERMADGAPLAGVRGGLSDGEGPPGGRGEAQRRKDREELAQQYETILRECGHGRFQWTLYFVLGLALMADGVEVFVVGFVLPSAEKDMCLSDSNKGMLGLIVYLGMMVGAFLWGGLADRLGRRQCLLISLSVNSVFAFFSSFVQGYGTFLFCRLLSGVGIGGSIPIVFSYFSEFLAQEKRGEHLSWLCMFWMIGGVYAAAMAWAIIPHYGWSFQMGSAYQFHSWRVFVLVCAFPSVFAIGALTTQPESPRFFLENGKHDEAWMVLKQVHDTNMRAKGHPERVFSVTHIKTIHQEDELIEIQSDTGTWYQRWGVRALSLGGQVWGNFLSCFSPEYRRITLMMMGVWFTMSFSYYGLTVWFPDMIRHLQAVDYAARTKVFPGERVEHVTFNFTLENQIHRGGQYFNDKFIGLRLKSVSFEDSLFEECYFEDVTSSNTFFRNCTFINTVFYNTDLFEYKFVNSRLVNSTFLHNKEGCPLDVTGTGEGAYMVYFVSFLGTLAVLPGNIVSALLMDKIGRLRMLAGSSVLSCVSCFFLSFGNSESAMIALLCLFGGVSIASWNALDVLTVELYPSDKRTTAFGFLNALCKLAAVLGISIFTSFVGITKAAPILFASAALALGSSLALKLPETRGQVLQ

hSV2A = molecular target: T2, hSV2A (Homo sapiens, UniProt Q7L0J3); experiment: [3H]ucb 30889 binding to hSV2A expressed in COS-7 cells; conditions: for competition with [3H]ucb 30889 for binding to SV2A: concentrations up to 100 μM
T2 construct: expressed in transfected cells; host or cells: COS-7 cells, transient transfection (pDEST 12.2 Gateway vector, CMV promoter)
T2 sequence (Q7L0J3 whole entry): as the sequence (Q02563 whole entry) above, with E53D, A62S, A71T, D144E, T154A, S440G, A482S, V572I, L634M counted along it

audiogenic seizures = conditions: in vivo; cited from earlier work
[2] = test system: refractory partial seizures; conditions: adjunctive therapy; cited from earlier work
[3] = test system: LBS in peripheral tissues; experiment: [3H]ucb 30889 specific binding in peripheral tissues; conditions: 150 μg protein/assay, 1.3 nM radioligand; detection limit Bmax 200 fmol/mg protein
Description: (§1) Binding experiments were conducted on crude rat brain membranes at 4° C. as described in Noyer et al. (Euro. J. Pharmacol. 286:137-146 (1995)). Incubation time for equilibrium studies was 120 min. For kinetic and competition studies, [^3H]ucb 30889 (30 Ci/mmol) was used at a concentration of 1.3 nM in 0.5 ml of a Tris-HCl (pH 7.4) buffer containing 2 mM Mg^2+. Localization of the LBS in brain substructures was assessed by autoradiography on 25 μm thick slices incubated under similar conditions. Slides were then washed twice for 10 min at 4° C. in 50 mM Tris-HCl (pH 7.4) containing 0.5% BSA, dried and exposed for 3 weeks to [^3H]Hyperfilm at −20° C. Non-specific binding (NSB) was determined by the inclusion of 1 mM LEV during the incubation period.
The limit of detection under the experimental conditions (150 μg of protein/assay and 1.3 nM of radioligand) was a Bmax of 200 fmol/mg protein.

PC12bs cells (LBS) = experiment: Intact cell [3H]ucb 30889 binding in PC12bs cells; set-up: species or system rat; conditions: identical conditions
Description: In a binding experiment, specific binding was measured of [^3H]ucb 30889 to COS-7 cells that have either been transfected with SV2A-12.2, or as controls, a β-gal expressing vector, or cells that have not been transfected (FIG. 13). […] The cells were incubated at 4° C. for 2 hours, and then washed rapidly with ice-cold PBS. The cells were lysed on the plate, transferred to scintillation vials with scintillation fluid and counted for ^3H decay emission. […] In identical intact cell binding experiments using PC12bs cells, known to express the LBS, a 1.5 to 2-fold difference in CPM between the ‘hot’ and ‘hot+cold’ samples is typically seen, as compared to the 5-fold difference seen here.

PC12 = experiment: [3H]ucb 30889 binding in PC12 cells; set-up: species or system rat
Description: (§2) To identify and characterize the LBS in situ, [^3H]ucb 30889 was used to map the LBS within the brain and to study both its cellular and subcellular distribution. For rat brain autoradiography, 25 μm slices were incubated with 1.3 nM [^3H]ucb 30889 for 120 min at 4° C. in 50 mM Tris-HCl buffer (pH 7.4). Binding assays with rat brain membranes and various neuronal cell lines were performed under similar conditions. […] For photolabeling, membranes were incubated with 40 nM [^3H]ucb 30889 for 120 min at 4° C. in the same buffer, followed by irradiation with UV-light for 30 min (Fuks et al., Eur. J. Pharmacol. 478:11-19 (2003)).

hSV2C = molecular target: T3, hSV2C (Homo sapiens, UniProt Q496J9); experiment: [3H]ucb 30889 binding to hSV2C expressed in COS-7 cells; conditions: transient COS-7 system
T3 construct: expressed in transfected cells; host or cells: COS-7 cells, transient expression
T3 sequence (Q496J9 1-727): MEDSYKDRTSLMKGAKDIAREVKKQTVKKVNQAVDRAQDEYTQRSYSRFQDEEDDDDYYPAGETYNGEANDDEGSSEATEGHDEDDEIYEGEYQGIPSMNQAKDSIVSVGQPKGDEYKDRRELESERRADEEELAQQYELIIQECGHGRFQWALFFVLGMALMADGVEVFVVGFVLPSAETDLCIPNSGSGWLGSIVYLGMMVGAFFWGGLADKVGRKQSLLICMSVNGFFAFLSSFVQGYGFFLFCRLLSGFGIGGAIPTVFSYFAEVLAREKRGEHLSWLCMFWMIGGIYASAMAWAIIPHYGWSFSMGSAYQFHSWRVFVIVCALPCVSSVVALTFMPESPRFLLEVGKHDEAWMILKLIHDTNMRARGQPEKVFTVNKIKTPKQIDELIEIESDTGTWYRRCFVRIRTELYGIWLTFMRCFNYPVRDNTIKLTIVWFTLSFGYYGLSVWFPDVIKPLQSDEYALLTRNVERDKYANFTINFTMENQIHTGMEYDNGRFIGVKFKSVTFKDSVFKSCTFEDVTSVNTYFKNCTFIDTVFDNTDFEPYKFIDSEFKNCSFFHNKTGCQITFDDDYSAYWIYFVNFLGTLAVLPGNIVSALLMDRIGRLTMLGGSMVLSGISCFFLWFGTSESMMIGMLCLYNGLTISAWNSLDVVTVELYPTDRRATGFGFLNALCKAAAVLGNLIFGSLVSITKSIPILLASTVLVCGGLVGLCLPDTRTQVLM

[4] = molecular target: T1, levetiracetam binding site (LBS); experiment: [3H]ucb 30889 binding to crude rat brain membranes (kinetic, saturation, competition)
Description: as §1

SV2A in native membrane = molecular target: T4, SV2A in native membrane (Rattus norvegicus, UniProt Q02563); experiment: Scatchard analysis of [3H]ucb 30889 binding, native rat brain membrane
T4 construct: from tissue
T4 sequence (Q02563 whole entry): as the sequence (Q02563 whole entry) above

soluble SV2A = molecular target: T5, soluble SV2A (Rattus norvegicus, UniProt Q02563); experiment: [3H]ucb 30889 binding to n-dodecyl-β-D-maltoside solubilized SV2A; conditions: soluble protein in n-dodecyl-β-D-maltoside; read-out: KD (Scatchard analysis)
T5 construct: from tissue; host or cells: supernatant of detergent-solubilised rat brain membranes
T5 sequence (Q02563 whole entry): as above
Description: The rat brain membranes were diluted in a solubilization buffer (Tris-HCl 20 mM pH 7.4, 0.25 M sucrose, protease inhibitors Complete Roche) containing n-dodecyl-β-D-maltoside 15 mM and incubated for two hours at 4° C. Subsequently, the solution was centrifuged at 4° C. for one hour at 100,000 g. The soluble SV2A was found in the supernatant as detected by western blot using anti-SV2A antibodies (FIG. 21A). The supernatants were incubated with [^3H]ucb 30889 as described. […] Thus, the binding properties of the soluble SV2A are similar to the membrane-bound native form indicative that the soluble protein maintains its native structural conformation in n-dodecyl-β-D-maltoside.

Mouse cortical neurons = experiment: [3H]ucb 30889 binding in mouse cortical neurons
Description: as §2

hSV2B = molecular target: T6, hSV2B (Homo sapiens, UniProt Q7L1I2); experiment: [3H]ucb 30889 binding to hSV2B expressed in COS-7 cells; conditions: transient COS-7 system
T6 construct: expressed in transfected cells; host or cells: COS-7 cells, transient expression
T6 sequence (Q7L1I2 whole entry): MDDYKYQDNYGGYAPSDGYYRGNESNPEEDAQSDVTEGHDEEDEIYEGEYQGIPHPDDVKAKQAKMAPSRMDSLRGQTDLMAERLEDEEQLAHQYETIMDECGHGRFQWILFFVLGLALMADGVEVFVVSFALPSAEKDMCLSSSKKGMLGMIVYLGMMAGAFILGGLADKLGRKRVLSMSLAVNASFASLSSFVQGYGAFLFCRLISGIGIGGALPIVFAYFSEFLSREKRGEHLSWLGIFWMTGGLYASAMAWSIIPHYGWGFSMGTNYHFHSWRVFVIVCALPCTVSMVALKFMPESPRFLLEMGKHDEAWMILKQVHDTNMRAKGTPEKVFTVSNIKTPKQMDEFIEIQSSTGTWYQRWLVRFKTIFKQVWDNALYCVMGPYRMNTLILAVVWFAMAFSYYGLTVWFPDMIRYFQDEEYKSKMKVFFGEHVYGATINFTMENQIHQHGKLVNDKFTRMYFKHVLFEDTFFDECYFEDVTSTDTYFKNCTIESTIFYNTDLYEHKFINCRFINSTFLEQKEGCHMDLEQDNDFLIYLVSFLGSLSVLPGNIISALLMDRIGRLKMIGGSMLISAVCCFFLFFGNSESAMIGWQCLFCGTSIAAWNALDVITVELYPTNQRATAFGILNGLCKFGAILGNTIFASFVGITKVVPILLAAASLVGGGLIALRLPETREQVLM

COS-7 = experiment: [3H]ucb 30889 binding in untransfected COS-7 cells; conditions: untransfected COS-7 cell line
Description: as §2
In addition, a PC12 cell line subclone, PC12a, which is low in LBS, was used to establish a pool of PC12 cells expressing hSV2A under stable antibiotic selection.

[5] = test system: Rat cerebellar granule neurons; experiment: [3H]ucb 30889 binding in rat cerebellar granule neurons
Description: as §2

[6] = rat brain cortex, 4° C., fast component (25 to 50% of the sites)
[7] = rat brain cortex, 4° C., slow component

Compound	displacement of LEV binding [1]	competition with [3H]ucb 30889 for binding to SV2A (hSV2A)	further results
COc1ccc(C(=O)N2CCCC2=O)cc1 [aniracetam]	displaced LEV binding		
CCC1(C)CC(=O)NC(=O)C1 [bemegride]	competed with LEV		
NC(=O)N1c2ccccc2C=Cc2ccccc21 [carbamazepine]	do not displace LEV binding	None of the AEDs at concentrations up to 100 μM, competed	
O=C1CN=C(c2ccccc2Cl)c2cc([N+](=O)[O-])ccc2N1 [clonazepam]	do not displace LEV binding		
CCC1(C)CC(=O)NC1=O (stereo not drawn) [ethosuximide]	competed with LEV	None of the AEDs at concentrations up to 100 μM, competed	
NC(=O)OCC(COC(N)=O)c1ccccc1 [felbamate]	do not displace LEV binding	None of the AEDs at concentrations up to 100 μM, competed	
NCC1(CC(=O)O)CCCCC1 [gabapentin]	do not displace LEV binding	None of the AEDs at concentrations up to 100 μM, competed	
CC[C@@H](C(N)=O)N1CCCC1=O [levetiracetam, (S)-α-ethyl-2-oxo-1-pyrrolidine acetamide]			affinity for the binding site ([1]; listed as LEV): modest affinity; affinity for the binding site ([1]; listed as [^3H]LEV): only micromolar affinity; suppression of seizures in the audiogenic-susceptible mouse (audiogenic seizures): unexpected potent ability; control of refractory partial seizures in adults [2]: both effective and well tolerated
CCCC(C)C1(CC)C(=O)NC(=O)NC1=O (stereo not drawn) [pentobarbital]	competed with LEV		
C1CCc2nnnn2CC1 [pentylenetetrazole]	competed with LEV		
O=C1NC(=O)C(c2ccccc2)(c2ccccc2)N1 [phenytoin]	do not displace LEV binding	None of the AEDs at concentrations up to 100 μM, competed	
Cc1ccsc1C(=CCCN1CCC[C@@H](C(=O)O)C1)c1sccc1C [tiagabine]	do not displace LEV binding	None of the AEDs at concentrations up to 100 μM, competed	
CC[C@@H](C(N)=O)N1CC(c2cccc(N=[N+]=[N-])c2)CC1=O (stereo partly drawn) [ucb 30889, (2S)-2-[4-(3-azidophenyl)-2-oxopyrrolidin-1-yl]butanamide]			specific binding in peripheral tissues [3]: could not be detected; difference in CPM between 'hot' and 'hot+cold' samples (PC12bs cells (LBS)): 1.5 to 2 fold; Bmax (PC12): 1.4 pmol/mg; Kd (PC12): 40 nM; binding above background (hSV2C): no binding above background; half-time for association, fast component [4, 6]: 3 ± 2 min; half-time for dissociation, fast component [4, 6]: 4 ± 1 min; half-time for association, slow component [4, 7]: 47 ± 13 min; half-time for dissociation, slow component [4, 7]: 61 ± 15 min; Bmax (saturation binding) ([4]; rat brain membranes, substance used as radioligand): 5054±704 fmol/mg protein; Kd (SV2A in native membrane): 30 nM; Kd (soluble SV2A): 82 nM; difference in CPM between 'hot' and 'hot+cold' samples (hSV2A; COS-7 transfected with SV2A-12.2, 1 nM radioligand ± 50 μM cold Levetiracetam, 4° C., 2 hours): 5 fold; Bmax (Mouse cortical neurons): 1.4 pmol/mg protein; Kd (Mouse cortical neurons): 34 nM; binding above background (hSV2B): no binding above background; binding above background (COS-7): no binding above background; Bmax [5]: 0.7 pmol/mg protein; Kd [5]: 59 nM
CC[C@@H](C(N)=O)N1CCCC1=O [ucb L060]			affinity to hSV2A compared with LEV (hSV2A; displacement of [3H]ucb 30889, COS-7): significantly less affinity
CCCC(CCC)C(=O)O [valproate]	do not displace LEV binding	None of the AEDs at concentrations up to 100 μM, competed	
C=CC(N)CCC(=O)O (stereo not drawn) [vigabatrin]	do not displace LEV binding	None of the AEDs at concentrations up to 100 μM, competed	
NS(=O)(=O)Cc1noc2ccccc12 [zonisamide]	do not displace LEV binding	None of the AEDs at concentrations up to 100 μM, competed	
picrotoxin	do not displace LEV binding		
